Test system: Human recombinant GST-PI3K
Test: PI3K induced-lipid phosphorylation, neomycin-SPA scintillation proximity assay
Type: biochemical
Settings: Human recombinant GST-PI3K, SPA
Excerpt: The efficacy of compounds of the invention in inhibiting the PI3K induced-lipid phosphorylation may be tested in the following binding assay. The assay combines the scintillation proximity assay technology (SPA, Amersham) with the capacity of neomycin (a polycationic antibiotic) to bind phospholipids with high affinity and specificity. The Scintillation Proximity Assay is based on the properties of weakly emitting isotopes (such as ^3H, ^125I, ^33P). Coating SPA beads with neomycin allows the detection of phosphorylated lipid substrates after incubation with recombinant PI3K and radioactive ATP in the same well, by capturing the radioactive phospholipids to the SPA beads through their specific binding to neomycin.
To a 96 wells MTP containing 10 μL of the test compound of Formula (I) (solubilized in 10% DMSO; […]), the following assay components are added: 1) 10 μL of lipid micelles 2) 20 μL of Kinase buffer ([^33P]γATP162 μM/300 nCi, MgCl2 2.5 mM, DTT 2.5 mM, Na3VO4 25 uM in Hepes 40 mM, pH 7.4) and 3) 10 μL (100 ng) of Human recombinant GST-PI3K (in Hepes 40 mM, pH 7.4, ethylenglycol 4%). After incubation at room temperature for 120 minutes, with gentle agitation, the reaction is stopped by addition of 200 μL of a solution containing 250 μg of neomycin-coated PVT SPA beads, ATP 60 mM and EDTA 6.2 mM in PBS. The assay is further incubated at room temperature for 60 minutes with gentle agitation to allow binding of phospholipids to neomycin-SPA beads. After precipitation of the neomycin-coated PVT SPA beads for 5 minutes at 1500×g, radioactive PtdIns(3)P is quantified by scintillation counting in a Wallac MicroBeta™ plate counter.
The values indicated in Table I below refer to the IC50 (μM) with respect to PI3K, i.e. the amount necessary to achieve 50% inhibition of said target. Said values show a considerable inhibitory potency of quinoxaline compounds with regard to PI3K.

`COc1cc(Nc2nc3ccccc3nc2NS(=O)(=O)c2cn(C)cn2)cc(C(=O)NCCO)c1` [Example 67, N-(2-Hydroxyethyl)-3-methoxy-5-[(3-{[(1-methyl-1H-imidazol-4-yl)sulfonyl]amino}quinoxalin-2-yl)amino]benzamide] showed an IC50 of 100 nM.

With `COc1ccc(CCCO)c(Nc2nc3ccccc3nc2NS(=O)(=O)CCCS(C)(=O)=O)c1` [Example 60, N-(3-{[2-(3-Hydroxypropyl)-5-methoxyphenyl]amino}quinoxalin-2-yl)-3-(methylsulfonyl)propane-1-sulfonamide] the IC50 was 120 nM.

In the case of `COc1ccc(CCOC(=O)[C@@H](N)C(C)C)c(Nc2nc3ccccc3nc2NS(=O)(=O)c2cn(C)cn2)c1` [Example 104], the IC50 is reported as 100 nM.

Compound `COc1ccc(CCCO)c(Nc2nc3ccccc3nc2NS(=O)(=O)c2ccc(NC(=O)CN(C)C)cc2)c1` [Example 71, 2-Dimethylamino-N-(4-{[(3-{[2-(3-hydroxypropyl)-5-methoxyphenyl]amino}quinoxalin-2-yl)]sulfamoyl}phenyl)-acetamide] has an IC50 of 32 nM.

`COc1ccc(CC2C[C@H]3CC[C@@H](C2)N3C)c(Nc2nc3ccccc3nc2NS(=O)(=O)c2cn(C)cn2)c1` (stereo partly drawn) [Example 15, N-{3-[(5-methoxy-2-{[(1R,5S)-8-methyl-8-azabicyclo[3.2.1]oct-3-yl]methyl}phenyl)amino]quinoxalin-2-yl}-1-methyl-1H-imidazole-4-sulfonamide] gave an IC50 of 110 nM.

Work on `COc1ccc(CCO)c(Nc2nc3ccccc3nc2NS(=O)(=O)c2ccc(NC(=O)CO)cc2)c1` [Example 69, 2-Hydroxy-N-(4-{[(3-{[2-(2-hydroxyethyl)-5-methoxyphenyl]amino}quinoxalin-2-yl)amino]sulfonyl}phenyl)acetamide] yielded an IC50 of 65 nM.

Compound `COc1cc(Nc2nc3ccccc3nc2NS(=O)(=O)c2cccnc2)cc(C(=O)N2CCN(C)CC2)c1` [Example 4, N-[3-({3-methoxy-5-[(4-methylpiperazin-1-yl)carbonyl]phenyl}amino)quinoxalin-2-yl]pyridine-3-sulfonamide] has an IC50 of 3340 nM.

With `COc1ccc(C(=O)O)c(Nc2nc3ccccc3nc2NS(=O)(=O)c2cccnc2)c1` [Example 98, 4-methoxy-2-({3-[(pyridin-3-ylsulfonyl)amino]quinoxalin-2-yl}amino)benzoic acid] the IC50 was 4680 nM.

Compound `COCCc1ccc(OC)cc1Nc1nc2ccccc2nc1NS(=O)(=O)C1CCNCC1` [Example 100, N-(3-{[5-Methoxy-2-(2-methoxyethyl)phenyl]amino}quinoxalin-2-yl)piperidine-4-sulfonamide] has an IC50 of 98 nM.

Work on `COc1ccc(CCO)c(Nc2nc3ccccc3nc2NS(=O)(=O)c2cn(C)cn2)c1` [Example 35, N-(3-{[2-(2-Hydroxyethyl)-5-methoxyphenyl]amino}quinoxalin-2-yl)-1-methyl-1H-imidazole-4-sulfonamide] yielded an IC50 of 48 nM.

For `COc1ccc(CCO)c(Nc2nc3ccccc3nc2NS(=O)(=O)c2ccc(CN(C)C)cc2)c1` [Example 89, 4-[(Dimethylamino)methyl]-N-(3-{[2-(2-hydroxyethyl)-5-methoxyphenyl]amino}quinoxalin-2-yl)benzenesulfonamide], the IC50 was 26 nM.

For `COc1ccc(CCS(C)(=O)=O)c(Nc2nc3ccccc3nc2NS(=O)(=O)c2cn(C)c(CN(C)C)n2)c1` [Example 65, 2-[(Dimethylamino)methyl]-N-[3-({5-methoxy-2-[2-(methylsulfonyl)ethyl]phenyl}amino)quinoxalin-2-yl]-1-methyl-1H-imidazole-4-sulfonamide], the IC50 was 87 nM.

`COC(=O)CCc1ccc(S(=O)(=O)Nc2nc3ccccc3nc2Nc2cc(OC)ccc2CCO)cc1` [Example 41, Methyl 3-(4-{[(3-{[2-(2-hydroxyethyl)-5-methoxyphenyl]amino}quinoxalin-2-yl)amino]sulfonyl}phenyl)propanoate] showed an IC50 of 70 nM.

For `COc1ccc(CC(O)CO)c(Nc2nc3ccccc3nc2NS(=O)(=O)c2cn(C)cn2)c1` [Example 77, N-[3-({2-[(2R,2S)-2,3-Dihydroxypropyl]-5-methoxyphenyl}amino)quinoxalin-2-yl]-1-methyl-1H-imidazole-4-sulfonamide], the IC50 was 120 nM.
